One assay relates to Ctr1^−/− MEFs. Description: MTT cell viability, Ctr1-/- MEFs. The assay is classed as cell-based, mouse. Here is the method:
(§1) A modified 3-(4,5-dimethylthiazol-2-yl)-2,5-diphenyltetrazolium bromide (MTT) assay (Mosmann, [1983]) was used to test the chemosensitivity of cells to phenanthriplatin and, in some experiments, to cisplatin by determining the glycolysis rate via the reduction of the yellow tetrazolium salt MTT to a purple formazan dye, as previously described (Wehe et al., [2014]). Briefly, after growing for 24 h in the incubator, cells expressing or not hOCT2, hMATE1, hMATE2 or Ctr1 were treated for 10 min with platinum derivatives. Control cells were incubated with drug-free complete cell culture medium. Afterwards, the medium was carefully removed and replaced by 200 μL of fresh complete cell culture medium. After incubation for another 24 h, 10 μL of MTT solution containing 5 mg/mL of the dye were added to each well, and the cells were again incubated for 3 h. The medium was then removed and 100 μL of lysis buffer containing 10% (w/v) sodium dodecyl sulfate and 40% (v/v) dimethylformamide was added to each well. The plates were shaken for 10 min to destroy the cell structure and dissolve the blue formazan dye (Furchert et al., [2007]; Wehe et al., [2014]). Finally, the absorbance was measured at 590 nm using an automated microtiter plate reader (Infinite M200; Tecan, Männedorf, Switzerland). The percentage of viable cells in the untreated controls was compared to that for the various treatments. Experiments carried out with DAOY and UW228 cells followed a similar protocol except that these cells were incubated for 24 h with phenanthriplatin.

The test system of a further assay is HEK293 hMATE1 cells. Description: MTT cell viability, HEK293 hMATE1 cells. The class given is cell-based, human. The conditions noted are these: HEK293 hMATE1, 100 μM phenanthriplatin. Here is the method: as §1, with “Experiments carried out with DAOY and UW228 cells followed a similar protocol except that these cells were incubated for 24 h with phenanthriplatin.” left out

In a further assay the test system is DAOY cells. Description: MTT cell viability, DAOY medulloblastoma cells. The class given is cell-based. Here is the method: as §1
(§2) Data are presented as mean values ± SEM, with (n) referring to the number of wells. IC50 values defined as the concentration of platinum agent required to inhibit uptake of ASP^+ by 50% and EC50 values used to assess cell viability were obtained by sigmoidal concentration-response curve fitting using GraphPad Prism, Version 5.3 (GraphPad Software, San Diego, USA). […] For multiple comparisons, ANOVA with Bonferroni post-test was used. A P-value < 0.05 was considered statistically significant.

The test system of another assay is UW228 cells. Description: MTT cell viability, UW228 medulloblastoma cells. The assay is classed as cell-based. Here is the method:
as §1, §2

A further assay concerns the target T1, hOCT3 (Homo sapiens, UniProt O75751).
T1 construct: expressed in transfected cells; gift of H. Koepsell
T1 sequence (O75751 1-556): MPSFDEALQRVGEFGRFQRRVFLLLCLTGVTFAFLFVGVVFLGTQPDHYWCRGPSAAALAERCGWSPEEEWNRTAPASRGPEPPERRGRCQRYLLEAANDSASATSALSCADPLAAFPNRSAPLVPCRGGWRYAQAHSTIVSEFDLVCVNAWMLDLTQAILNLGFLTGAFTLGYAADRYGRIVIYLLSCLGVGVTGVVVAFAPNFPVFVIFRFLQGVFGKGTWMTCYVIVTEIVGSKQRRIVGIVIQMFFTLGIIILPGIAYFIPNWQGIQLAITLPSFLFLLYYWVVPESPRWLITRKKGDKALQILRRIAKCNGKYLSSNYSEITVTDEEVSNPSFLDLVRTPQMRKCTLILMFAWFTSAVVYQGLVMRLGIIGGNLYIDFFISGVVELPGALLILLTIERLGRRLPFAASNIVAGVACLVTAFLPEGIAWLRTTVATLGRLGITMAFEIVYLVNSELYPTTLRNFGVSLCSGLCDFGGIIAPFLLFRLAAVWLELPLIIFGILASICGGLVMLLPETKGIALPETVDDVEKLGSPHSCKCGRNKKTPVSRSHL
Description: Inhibition of ASP+ uptake in HEK 293 cells expressing hOCT3. Particulars: HEK 293 hOCT3, 1 μM ASP+. The class given is cell-based. As for the experimental part: The interaction of phenanthriplatin with transporters for organic cations (OCT1-3, MATE1, and MATE2K) was investigated by measuring its effects on the uptake of the fluorescent organic cation 4-(4-dimethylamino)styryl-N-methylpyridinium (ASP^+). Microfluorometric measurements of ASP^+ uptake were performed with a fluorescence plate reader (Infinity 200, Tecan, Crailsheim, Germany; excitation at 465 nm, emission at 590 nm) as described previously for cultured HEK 293 cells (Wilde et al., [2009]). Before measurements, the culture medium in the wells of the 96 well microtiter plate containing HEK 293 cells was replaced by a HCO3- -free Ringer-like solution containing (in mM) NaCl 145, K2HPO4 1.6, KH2PO4 0.4, D-glucose 5, MgCl2 1, calcium gluconate 1.3, and pH adjusted to 7.4. Fluorescence was measured dynamically at 37°C in each well before and after ASP^+ addition to HCO3- -free Ringer-like solution, alone or together with increasing phenanthriplatin concentrations, and plotted versus time. ASP^+ (final concentration 1 or 10 μM for experiments with OCTs or MATEs, respectively) was added after the third sampling interval. Emission from the complete area of the well bottom was analyzed four times and averaged for each well. […] Background fluorescence was measured for each plate in wells with identical solutions containing no cells and subtracted from each well containing cells. […]

The subject of another assay is HEK 293 hOCT2 cells. The assay is described as follows: MTT cell viability, HEK 293 hOCT2 cells. The class given is cell-based, human. Particulars: 10 min. As for the experimental part: as §1
In another assay the test system is HEK293 hMATE2K cells. Description: MTT cell viability, HEK293 hMATE2K cells. The class given is cell-based, human. Particulars: 100 μM phenanthriplatin. As for the experimental part:
as §1, with “Experiments carried out with DAOY and UW228 cells followed a similar protocol except that these cells were incubated for 24 h with phenanthriplatin.” left out

Entries after “also recorded” stand apart in the source; their conditions may differ.

As for `N.N.[Cl][Pt+].c1ccc2c(c1)cnc1ccccc12` [phenanthriplatin, cis-[Pt(NH3)2Cl(phenanthridine)]^+], the “Cell viability (MTT)” value was “toxic; also recorded: still present in Ctr1^−/− MEFs even though at lower level than in Ctr1^+/+ MEFs” with Ctr1^−/− MEFs (1 mM, 10 min); “did not change the cell viability” with Ctr1^−/− MEFs (lower concentrations (<1 mM)); “induces significant cell toxicity” in the assay with HEK293 hMATE1 cells; “reduced upon co-incubation of phenanthriplatin with cimetidine” in the assay on HEK 293 hOCT2 cells (HEK 293 hOCT2, 10 μM phenanthriplatin + 100 μM cimetidine); “significant phenanthriplatin toxicity” in the assay with HEK 293 hOCT2 cells (HEK 293 hOCT2, 10 μM phenanthriplatin); “induces significant cell toxicity” in the assay with HEK293 hMATE2K cells. Further, the “Protection from phenanthriplatin toxicity by cimetidine (cell viability, MTT)” value in the assay with DAOY cells (24 h, 1 μM phenanthriplatin + 10-fold higher cimetidine) is on record as “efficaciously protected against phenanthriplatin toxicity by cimetidine; also recorded: significantly decreased the toxicity of this compound in DAOY”; in the assay on UW228 cells (UW228, 24 h, 3 μM phenanthriplatin + 10-fold higher cimetidine), “not in UW228 cells”. In addition, the EC50 (usually the concentration at which the effect is half-maximal) is 900 nM with DAOY cells (24 h incubation, MTT) and 2800 nM in the assay on UW228 cells (UW228, 24 h incubation, MTT). Also, the “logEC50 ± SEM for viability” value is reported as −6.05 ± 0.02 in the assay with DAOY cells (24 h incubation, MTT) and −5.55 ± 0.03 in the assay on UW228 cells (UW228, 24 h incubation, MTT). In addition, on hOCT3, the concentration for half-maximal inhibition (IC50) (usually the concentration needed to halve the response being measured) is 21000 nM. Also, on hOCT3, the “logIC50 (logEC50) ± SEM for inhibition of ASP+ uptake” value is −4.67 ± 0.07.

For the origin of these results see article PMC5982655, “Interaction of the New Monofunctional Anticancer Agent Phenanthriplatin With Transporters for Organic Cations” (Frontiers in Chemistry, 2018).
